Data reported in patent US11117874B2, “Certain (2S)-N-[(1S)-1-cyano-2-phenylethyl]-1,4-oxazepane-2-carboxamides as dipeptidyl peptidase 1 inhibitors” (AstraZeneca AB, priority 2014, dated 2021).

Experiment: Test B: In-Vitro Competitive Aortic Tissue Binding Assay
Details: 100 μM compound pre-incubated overnight at 37° C. with rat aortic homogenate, competition with 100 μM [14C]4-amino-N-[(1S)-1-cyano-2-(4′-cyanobiphenyl-4-yl)ethyl]tetrahydro-2H-pyran-4-carboxamide; four categories
Method: To assist the design of DPP1 inhibitors with a decreased risk of binding to elastin rich tissues, such as the aorta, the in-vitro competitive aortic binding assay disclosed below (Test B) was developed to facilitate the selection process.
Test B: In-Vitro Competitive Aortic Tissue Binding Assay
Aortic homogenate was prepared from the thoracic aortae of Han Wistar rats. Freshly isolated to thoracic aortae were frozen, and later thawed and stripped of non-elastic material.
Homogenate concentration was adjusted to 30 mg/mL in Puck's saline, and aliquots were stored at −80° C. until use. Positive and negative control compounds and test compounds were made up to 100 mM in DMSO, and added to 1 mL aliquots of aortic homogenate in Puck's saline for a final concentration of 100 μM. Homogenate samples were pre-incubated with test compounds at 37° C., rotating, overnight. [^14C]4-Amino-N-[(1S)-1-cyano-2-(4′-cyanobiphenyl-4-yl)ethyl]tetrahydro-2H-pyran-4-carboxamide was then added to all samples to a final concentration of 100 μM, and samples were incubated at 37° C., rotating, for a further 2 h. Protein was precipitated from each sample by the addition of 10 mL acetone, pre-chilled to −20° C. Samples were left overnight at −20° C. to allow complete precipitation. Precipitate was pelleted by centrifugation at 4,500×g at 4° C. for 20 min, an aliquot of supernatant was removed for analysis, and the remainder of the supernatant discarded. Precipitate was washed by resuspension in 10 mL 80% methanol in distilled water, and re-pelleted by centrifugation at 4,500×g at 4° C. for 20 min. […] After final wash, precipitate was air-dried, and dissolved overnight in 1 mL NCSII Tissue Solubiliser. 1 mL aliquots of supernatants were added to 5 mL Ultima Gold scintillation fluid (Perkin Elmer, Mass., U.S.A.), and 1 mL solubilised pellets were added to 5 mL Hionic-Fluor scintillation fluid (Perkin Elmer, Mass., U.S.A.). Radioactivity of samples was determined on a Beckman LS6500 multipurpose scintillation counter (Beckman Coulter, Ind., U.S.A.). […] Duplicate samples were tested for each compound on each experimental occasion, and at least two experiments were run for each test compound. […] 1-way ANOVA and to Bonferroni's multiple comparison tests were performed to calculate significance of differences from vehicle control.

SMILES | Aortic Tissue Binding
Cn1c(=O)oc2ccc(-c3ccc(C[C@@H](C#N)NC(=O)C4(N)CCOCC4)cc3)cc21 [WO2010/128324 (Example 17)] | Strong binder
Cn1c(=O)oc2ccc(-c3ccc(C[C@@H](C#N)NC(=O)[C@@H]4CNCCCO4)cc3)cc21 [Example 2, (2S)—N-{(1S)-1-Cyano-2-[4-(3-methyl-2-oxo-2,3-dihydro-1,3-benzoxazol-5-yl)phenyl]ethyl}-1,4-oxazepane-2-carboxamide] | No binder
Cn1c(=O)oc2ccc(-c3ccc(C[C@@H](C#N)NC(=O)[C@@H]4CCCCN4)cc3)cc21 [WO2009/074829 (Example 96)] | Medium binder
N#Cc1ccc(-c2ccc(C[C@@H](C#N)NC(=O)[C@@H]3CCCCN3)cc2)cc1 [WO2009/074829 (Example 24)] | Binder
N#Cc1ccc(-c2ccc(C[C@@H](C#N)NC(=O)C3(N)CCOCC3)cc2)cc1 [WO2010/128324 (Ex. 3), 4-amino-N-[(1S)-1-cyano-2-(4′-cyanobiphenyl-4-yl)ethyl]tetrahydro-2H-pyran-4-carboxamide] | Strong binder (reference)

Experiment: not given
Details: described in literature (Schmidt et al. 1984); cited from earlier work

SMILES | retention in the aorta in QWBA studies
CC(c1ccc(Cl)c(Cl)c1)N1N=C(N)CC1=O (stereo not drawn) [muzolimine] | retained selectively in the aorta
